Data as given in patent US20110039762A1, “TARGETED ANTIMICROBIAL MOIETIES” (C3 JIAN, INC., priority 2009, published 2011).
Entries after “also recorded” stand apart in the source; their conditions may differ.

Legend:
microorganisms = experiment: Peptides having multiple activities (targeting/binding, antimicrobial, growth or phenotype altering)
Text: In certain embodiments, peptides described herein can have multiple activities. Thus for example, a peptide can have both binding/targeting activity and antimicrobial activity. Such peptides can be used, e.g., in a chimeric construct, for any or all of these properties. Thus, for example, a peptide designated “B” in Table 8 can be used as a targeting peptide. If it is also designated G or M it can also be used for antimicrobial activity.

S. pneumoniae = experiment: Kill or inhibit growth/proliferation; morphology, biofilm and growth disruption (Tables 5, 6); format: cell-based, Streptococcus pneumoniae; set-up: key: A: Peptide aggregates; B: Less hyphal formation; Clumps; Diffuse clumps and small polyps; F: Diffuse growth; H: Thin; I: Growth inhibition; Microcolony formation; Rippled; Small polyps; Thick; W: Halo formation on top, microlonies on bottom; note: test concentration or dose not given here
S. epidermidis = experiment: as above; format: cell-based, Staphylococcus epidermidis; set-up: key: A: Peptide aggregates; B: Less hyphal formation; Clumps; Diffuse clumps and small polyps; F: Diffuse growth; H: Thin; I: Growth inhibition; Microcolony formation; Rippled; Small polyps; Thick; W: Halo formation on top, microlonies on bottom
MRSA = experiment: as above; format: cell-based, Methicillin-resistant Staphylococcus aureus; set-up: key: A: Peptide aggregates; B: Less hyphal formation; Clumps; Diffuse clumps and small polyps; F: Diffuse growth; H: Thin; I: Growth inhibition; Microcolony formation; Rippled; Small polyps; Thick; W: Halo formation on top, microlonies on bottom; note: test concentration or dose not given here
M. luteus = experiment: as above; format: cell-based, Micrococcus luteus; set-up: key: A: Peptide aggregates; B: Less hyphal formation; Clumps; Diffuse clumps and small polyps; F: Diffuse growth; H: Thin; I: Growth inhibition; Microcolony formation; Rippled; Small polyps; Thick; W: Halo formation on top, microlonies on bottom
[1] = test system: microorganisms (e.g., bacteria, yeasts, fungi); experiment: Targeting peptide binding to target microorganisms (Table 3); conditions: microorganism(s) the targeting peptide binds, preferably 1x PBS
E. coli = experiment: Kill or inhibit growth/proliferation; morphology, biofilm and growth disruption (Tables 5, 6); format: cell-based, Escherichia coli; set-up: key: A: Peptide aggregates; B: Less hyphal formation; Clumps; Diffuse clumps and small polyps; F: Diffuse growth; H: Thin; I: Growth inhibition; Microcolony formation; Rippled; Small polyps; Thick; W: Halo formation on top, microlonies on bottom; note: test concentration or dose not given here
E. faecalis = experiment: as above; format: cell-based, Enterococcus faecalis; set-up: key: A: Peptide aggregates; B: Less hyphal formation; Clumps; Diffuse clumps and small polyps; F: Diffuse growth; H: Thin; I: Growth inhibition; Microcolony formation; Rippled; Small polyps; Thick; W: Halo formation on top, microlonies on bottom; note: test concentration or dose not given here
[2] = binding in aqueous buffers depending on peptide solubility
[3] = peptide binding conducted in aqueous buffers varied by peptide solubility
Throughout, for Organism, effect: test concentration or dose not given here.

EILNNNQVIKELTMKYKTQFESNLGGWTARARR [PF-580]
Activities (microorganisms): G B | Organism, effect (S. pneumoniae): S. pneumoniae (C) | Organism, effect (S. epidermidis): S. epidermidis (M) | Organism, effect (MRSA): MRSA (M) | Organism, effect (M. luteus): M. luteus (C)

LMFFSENMDKRDTLSGKFRYFAGSKVIKLMNWLSENGK [PF-226]
Target(s) [1, 2]: A. baumannii | Activities (microorganisms): G B | Organism, effect (S. epidermidis): S. epidermidis (C) | Organism, effect (M. luteus): M. luteus (T)

PF-125: peptide having multiple activities (YVVGALVILAVAGLIYSMLRKA; Peptide with targeting and/or antimicrobial activity)
Activities (microorganisms): G B | Organism, effect (S. epidermidis): S. epidermidis (D) | Organism, effect (M. luteus): M. luteus (C)

PF-212: peptide having multiple activities (NDSKASN; Peptide with targeting and/or antimicrobial activity)
Target(s) [1, 2]: M. luteus; also recorded: P. aeruginosa | Activities (microorganisms): G B | Organism, effect (M. luteus): M. luteus (M)

PF-215: peptide having multiple activities (ELKITNYNVNTVLYRYYKWGNDLCE; Peptide with targeting and/or antimicrobial activity)
Target(s) [1, 2]: S. epidermidis; also recorded: M. luteus; also recorded: P. aeruginosa; also recorded: A. baumannii | Activities (microorganisms): G B | Organism, effect (M. luteus): M. luteus (T)

PF-224: peptide having multiple activities (DYFYITLSQKNTF; Peptide with targeting and/or antimicrobial activity)
Target(s) [1, 2]: S. epidermidis; also recorded: P. aeruginosa; also recorded: A. baumannii | Activities (microorganisms): G B | Organism, effect (M. luteus): M. luteus (T)

PF-234: peptide having multiple activities (RTPYILRS; Peptide with targeting and/or antimicrobial activity)
Target(s) [1, 2]: S. epidermidis; also recorded: M. luteus | Activities (microorganisms): G B | Organism, effect (M. luteus): M. luteus (T)

PF-235: peptide having multiple activities (GIPFSKPHKRQVNYMKSDVLAYIEQNKMAHTA; Peptide with targeting and/or antimicrobial activity)
Target(s) [1, 2]: S. epidermidis; also recorded: M. luteus | Activities (microorganisms): G B | Organism, effect (M. luteus): M. luteus (T)

PF-249: peptide having multiple activities (INSRYKISF; Peptide with targeting and/or antimicrobial activity)
Target(s) [1, 2]: S. epidermidis; also recorded: M. luteus | Activities (microorganisms): G B | Organism, effect (M. luteus): M. luteus (R)

PF-250 (SEDIFGRLANEKANGLEELRKIRLKQ; Peptide with targeting and/or antimicrobial activity)
Organism, effect (M. luteus): M. luteus (T)

PF-255: peptide having multiple activities (DHKINESQHNPFRSDSNKQNVDFF; Peptide with targeting and/or antimicrobial activity)
Target(s) [1, 2]: P. aeruginosa | Activities (microorganisms): G B | Organism, effect (M. luteus): M. luteus (M)

PF-264 (MQSLSNRQSLIASYILMGIFLSFGYPPASLSKFFCRLSHL; Peptide with targeting and/or antimicrobial activity)
Organism, effect (M. luteus): M. luteus (H)

PF-270: peptide having multiple activities (MYLTPYAWIAVGSIFAFSVTTIKIGDQNDEKQKSHKNDVHKR; Peptide with targeting and/or antimicrobial activity)
Target(s) [1, 2]: S. epidermidis; also recorded: M. luteus; also recorded: P. aeruginosa | Activities (microorganisms): G B | Organism, effect (M. luteus): M. luteus (H)

PF-271: peptide having multiple activities (AAQPQTTSP; Peptide with targeting and/or antimicrobial activity)
Target(s) [1, 2]: S. epidermidis; also recorded: M. luteus; also recorded: P. aeruginosa; also recorded: A. baumannii | Activities (microorganisms): G B | Organism, effect (M. luteus): M. luteus (T)

PF-274 (SIQEAEKIIKNDPFYIHDVADYDFMWFEPSKSLEEIKEFV; Peptide with targeting and/or antimicrobial activity)
Organism, effect (M. luteus): M. luteus (M)

PF-276: peptide having multiple activities (LDLALSTNSLNLEGFSF; Peptide with targeting and/or antimicrobial activity)
Target(s) [1, 2]: S. epidermidis | Activities (microorganisms): G B | Organism, effect (M. luteus): M. luteus (M)

PF-440: peptide having multiple activities (chain 1 MFIISPDLFNIAVILYILFFIHDILLLILS; chain 2 MFIISPDLFNIAVILYILFFIHDILLLILS; Peptide with targeting and/or antimicrobial activity)
Organism, effect (E. coli): E. coli (R) | Activities (microorganisms): G B | Organism, effect (S. pneumoniae): S. pneumoniae (R) | Organism, effect (S. epidermidis): S. epidermidis (C) | Organism, effect (MRSA): MRSA (C) | Organism, effect (E. faecalis): E. faecalis (C)

PF-444: peptide having multiple activities (chain 1 MAAKLWEEGKMVYASSASMTKRLKLAMSKV; chain 2 MAAKLWEEGKMVYASSASMTKRLKLAMSKV; Peptide with targeting and/or antimicrobial activity)
Organism, effect (E. coli): E. coli (R) | Target(s) [1, 3]: M. luteus; also recorded: C. albicans; also recorded: S. pneumoniae; also recorded: C. jeikeium | Activities (microorganisms): G B | Organism, effect (S. pneumoniae): S. pneumoniae (R) | Organism, effect (S. epidermidis): S. epidermidis (C) | Organism, effect (MRSA): MRSA (C) | Organism, effect (E. faecalis): E. faecalis (C)

PF-451: peptide having multiple activities (chain 1 MVNYIIGSYMLYREQNNNEALRKFDITLAM; chain 2 MVNYIIGSYMLYREQNNNEALRKFDITLAM; Peptide with targeting and/or antimicrobial activity)
Organism, effect (E. coli): E. coli (R) | Activities (microorganisms): G B | Organism, effect (S. pneumoniae): S. pneumoniae (C) | Organism, effect (S. epidermidis): S. epidermidis (C) | Organism, effect (MRSA): MRSA (C) | Organism, effect (E. faecalis): E. faecalis (C)

PF-452: peptide having multiple activities (chain 1 MNNWIKVAQISVTVINEVIDIMKEKQNGGK; chain 2 MNNWIKVAQISVTVINEVIDIMKEKQNGGK; Peptide with targeting and/or antimicrobial activity)
Organism, effect (E. coli): E. coli (C) | Target(s) [1, 3]: M. luteus; also recorded: P. aeruginosa; also recorded: C. albicans; also recorded: S. pneumoniae; also recorded: E. faecalis; also recorded: C. jeikeium; also recorded: M. smegmatis | Activities (microorganisms): G B | Organism, effect (S. pneumoniae): S. pneumoniae (R) | Organism, effect (S. epidermidis): S. epidermidis (C) | Organism, effect (MRSA): MRSA (C) | Organism, effect (E. faecalis): E. faecalis (C)

PF-460: peptide having multiple activities (chain 1 MEHVLPFQNTPPNIVIIYKDFTHLKSITFS; chain 2 MEHVLPFQNTPPNIVIIYKDFTHLKSITFS; Peptide with targeting and/or antimicrobial activity)
Organism, effect (E. coli): E. coli (H) | Activities (microorganisms): G B | Organism, effect (S. pneumoniae): S. pneumoniae (R) | Organism, effect (S. epidermidis): S. epidermidis (C) | Organism, effect (MRSA): MRSA (C) | Organism, effect (E. faecalis): E. faecalis (C)

PF-518: peptide having multiple activities (chain 1 SFYSKYSRYIDNLAGAIFLFF; chain 2 SFYSKYSRYIDNLAGAIFLFF; Peptide with targeting and/or antimicrobial activity)
Organism, effect (E. coli): E. coli (R) | Target(s) [1, 3]: S. epidermidis and E. coli and P. aeruginosa and C. albicans and MRSA and S. pneumoniae and E. faecalis | Activities (microorganisms): G B | Organism, effect (S. pneumoniae): S. pneumoniae (M) | Organism, effect (S. epidermidis): S. epidermidis (C) | Organism, effect (MRSA): MRSA (C) | Organism, effect (E. faecalis): E. faecalis (C)

VWENRKKYLENEIERHNVFLKLGQEVIKGLNALASRGR [PF-257]
Target(s) [1, 2]: S. epidermidis | Activities (microorganisms): G B | Organism, effect (M. luteus): M. luteus (R)
